Data reported in patent publication US7914891B2, “Wipes including microencapsulated delivery vehicles and phase change materials” (Kimberly-Clark Worldwide, Inc., priority 2005, dated 2011).
Like-named read-outs stand apart in the source and are kept apart here.

Assays:
[1] = 35 wt % in mineral oil, added to 7.0 grams de-ionized water
Description: All five samples were then individually added to 7.0 grams de-ionized water and the resulting temperature rise was measured using a Barnant Scanning Thermocouple (available from Therm-X of California, Hayward, Calif.).
All four samples were then added to 7.0 grams de-ionized water and the resulting temperature rise was measured using a J type Thermocouple (available from Omega Engineering, Inc., Stamford, Conn.).

[2] = tested on: Methicillin-resistant Staphylococcus aureus; conditions: 22° C. compared to 50° C.; 0.005% active PHMB
Description: This Example utilized 1.5-milliliter tubes containing a 1-milliliter blend of phosphate-buffered saline (pH 7.2) and 5% (w/v) bovine serum albumin soil. The tubes were placed in electric heat blocks set for 22° C., 30° C., 40° C. and 50° C., respectively. The tubes remained in the electric heat blocks for approximately 10 minutes.
After 10 minutes, 0.005% (by weight) active polyhexamehtylene biguanide (PHMB) (commercially available as Cosmocil® CQ from Arch Biocides, Inc., United Kingdom) was added to two tubes at each temperature level. Duplicate tubes without PHMB at each temperature were also made.
The tubes were then vortexed and Methicillin-resistant Staphylococcus aureus (approximately 1×10^5 colony forming units (CFU)) was then added to each tube. All of the tubes were then placed back into the heat blocks at their respective temperatures.
Following a 10-minute contact time, 0.1 milliliters of each sample was transferred to 0.9 milliliters letheen broth to neutralize the PHMB activity. The letheen samples were then plated in duplicate on Tryptic Soy agar plates using a WASP2 spiral plater (commercially available from Don Whitley Scientific, Ltd., Yorkshire, United Kingdom). The plates were inverted and incubated at 37±2° C. for 48 hours.
After 48 hours, the plates were evaluated using a total plate count to determine the biocidal efficacy of each sample.

[3] = Heat generation after soaking in de-ionized water; format: physicochemical; conditions: in 7.0 grams de-ionized water; coated samples crushed after 0.5 to 2.0 hours
Description: To analyze the samples for heat generation, 0.80 grams of each sample of calcium chloride including a moisture protective layer was added to four separate vials each containing 7.0 grams of de-ionized water and 0.73 grams of the control sample was added to a fifth vial containing 7.0 grams of de-ionized water. Using a J type thermocouple (commercially available from Omega Engineering, Inc., Stamford, Conn.) and a data logger, the temperature of the samples was measured over a period of 180 seconds. The four vials containing the samples of microencapsulated heat delivery vehicle including a moisture protective layer were allowed to remain in the de-ionized water for 0.5 hours, 1.0 hour, 1.5 hours, and 2.0 hours, respectively, at which time the samples were activated by crushing the samples by hand using a metal rod. The temperature of the water in the four vials was measured for a period of 180 seconds after crushing the samples.

## [Cl-].[Cl-].[Mg+2] [anhydrous magnesium chloride, magnesium chloride]
[1]; particle size less than 250 micrometers vs three other size ranges
  rate of heat generation: generated heat at the highest rate

## polyhexamethylene biguanide [PHMB]
[2]
  LOG10 difference in efficacy: greater than 1.4 LOG10

## [Ca+2].[Cl-].[Cl-] [anhydrous calcium chloride, calcium chloride]
[1]; particle size 149-355 micrometers vs four other size ranges
  rate of heat generation: generated heat at the highest rate

## [Ca+2].[Cl-].[Cl-] [Example 11 control sample, calcium chloride]
[3]
  heat generation after contact with water: produced heat immediately upon being introduced into water but only for a short period of time
